Where two headings read alike, the source gives them in different places. No end group written: not given here.
Experiments:
[1] = system: F. novicida (strain U112); format: cell-based
[2] = system: influenza A H1N1 virus; details: 48 hr post-treatment, A549
[3] = system: HIV1 strain NL4-3; format: cell-based; details: for HIV1 Norm MEAN: normalized mean of HIV1 replication readout
[4] = system: EBV; details: for EBV Norm MEAN: normalized mean of EBV replication readout
[5] = system: HCV replicon; format: cell-based; details: normalized mean of HCV replicon readout

| Substance | Francisella novicida Norm AUC [1] | Neuraminidase activity normalized to vehicle ([2]; 200 µM peptide) | Neuraminidase activity normalized to vehicle ([2]; 0,823 µM peptide) | Neuraminidase activity normalized to vehicle ([2]; 22,2 µM peptide) | Neuraminidase activity normalized to vehicle ([2]; 2,4691 µM peptide) | Neuraminidase activity normalized to vehicle ([2]; 7,4074 µM peptide) | Neuraminidase activity normalized to vehicle ([2]; 66,6667 µM peptide) | HIV1 Norm MEAN [3] | EBV Norm MEAN [4] | HCV Norm MEAN [5] | HIV1 Norm MEAN ([3]; peptide screen) | EBV Norm MEAN ([4]; peptide screen) | HCV Norm MEAN ([5]; peptide screen) | activity in HIV1 screen (in words) ([3]; 20 µM peptide, HeLa P4 cells, β-galactosidase) | Francisella novicida Norm AUC ([1]; normalized area under the curve) | inhibition of EBV late gene reporter signal ([4]; 48 h, 20 µM) |
| --- | --- | --- | --- | --- | --- | --- | --- | --- | --- | --- | --- | --- | --- | --- | --- | --- |
| CPEP153: peptide of the viral peptide library; sequence page not shown (GRKKRRQRRR) | 0.6851 | 0,9878 | 1,0171 | 1,0832 | 1,0648 | 1,0014 | 1,1029 | 0.7984 | 2.382 | 0.3202 | – | – | – | – | – | – |
| CPEP103: viral library peptide from HCV NS4A targeting EEF1A1 (GCVVIVGRIVLSGK) | 0.5448 | 0,0978 | 0,8342 | 0,2828 | 0,8866 | 0,7276 | 0,1254 | – | – | – | 0.2448 | 0.7665 | 0.4622 | – | – | – |
| MAGRSGDSDEELIR [CPEP91] | 1.031 | 0,8049 | 0,8065 | 0,8658 | 0,8956 | 0,8592 | 0,8689 | – | – | – | 0.2767 | 0.5729 | 0.7752 | – | – | – |
| CPEP102: peptide of the viral peptide library; sequence page not shown (PHGPVQLSYYD) | 0.8816 | 0,8099 | 0,6759 | 0,942 | 1,0283 | 0,877 | 1,0125 | 1.958 | 1.648 | 0.8145 | – | – | – | – | – | – |
| TRVESENKVVILDSFD [CPEP93] | 0.7068 | 1,1147 | 1,1071 | 1,1929 | 1,0829 | 1,1322 | 1,0883 | – | – | – | 10.6718 | 1.069 | 0.8288 | – | – | – |
| ISNLPYTIKYKIFEQQ [CPEP120] | 0.5785 | 1,0456 | 1,0562 | 1,193 | 0,9901 | 1,0754 | 1,0268 | – | – | – | 3.21 | 1.211 | 0.3919 | – | – | – |
| GRPPLPPKQK [CPEP41] | 0.9976 | 0,8561 | 1,0727 | 0,912 | 0,9209 | 0,9892 | 0,8347 | 0.6258 | 0.7591 | 0.9259 | – | – | – | – | – | – |
| HGCPL [CPEP33] | 0.6368 | 0,999 | 0,7063 | 0,8914 | 0,8619 | 0,7735 | 1,0094 | 0.2429 | 1.339 | 0.1691 | – | – | – | – | – | – |
| LQQLL [CPEP130] | 0.7754 | 1,0055 | 0,8445 | 0,933 | 0,8513 | 0,8415 | 1,0245 | 1.886 | 1.354 | 0.1679 | – | – | – | – | – | – |
| RHFPRIW [CPEP146] | 1.892 | 0,7481 | 0,8163 | 0,8498 | 0,7842 | 0,7775 | 0,9221 | 0.9815 | 1.3564 | 0.2243 | – | – | – | – | – | – |
| SVWIPVNEGASTSGM [CPEP77] | 1.232 | 0,8793 | 0,7817 | 0,9377 | 0,8942 | 0,7709 | 0,8131 | – | – | – | 0.1545 | 1.026 | 0.6626 | most potent anti-HIV1 peptide | – | – |
| GPSDSGAGRAAEDRKCL [CPEP137] | 1.181 | 1,0777 | 1,0904 | 1,189 | 0,9326 | 1,1347 | 1,0155 | – | – | – | 0.7725 | 1.2267 | 0.6634 | – | – | – |
| PYQLT [CPEP58] | 0.486 | 0,7155 | 0,7664 | 0,8252 | 0,7115 | 0,806 | 0,8444 | 1.506 | 0.8535 | 0.1961 | – | – | – | – | – | – |
| AHQNSQTHQASLSKQ [CPEP43] | 1.137 | 0,8034 | 0,7858 | 0,9843 | 0,876 | 0,8511 | 0,7841 | – | – | – | 0.3977 | 0.682 | 1.077 | – | – | – |
| YFADLLI [CPEP50] | 0.9176 | 0,2471 | 0,883 | 0,8095 | 0,771 | 0,9007 | 0,7183 | 1.681 | 1.15 | 0.09464 | – | – | – | – | – | – |
| CPEP69: peptide of the viral peptide library; sequence page not shown (MRHIICHGGVITEE) | 1.041 | 1,1006 | 0,9574 | 1,0597 | 1,0075 | 1,0635 | 1,1613 | – | – | – | 0.7189 | 0.4275 | 0.5472 | – | – | – |
| GGLEPLSEKHFRETEV [CPEP112] | 1.082 | 1,0677 | 1,0673 | 1,1545 | 1,0388 | 1,1047 | 1,0264 | – | – | – | 0.2121 | 0.8103 | 0.3447 | – | – | – |
| SEWQRDQFLSQVK [CPEP95] | – | 0,9927 | 0,9256 | 0,9538 | 0,9776 | 0,9237 | 1,0019 | 0.5103 | 0.3991 | 0.2824 | – | – | – | – | 1.114 | 60% |
| DILDLWIYHTQGYFPDWQ [CPEP114] | 1.151 | 0,4016 | 1,1783 | 1,017 | 1,0928 | 1,195 | 0,5539 | – | – | – | 4.359 | 1.296 | 0.2469 | – | – | – |
| CPEP127: peptide of the viral peptide library; sequence page not shown (LVKPTVYVYSR) | 0.4703 | 0,2557 | 0,9001 | 0,8705 | 1,007 | 0,8577 | 0,9535 | 1.624 | 0.673 | 0.6257 | – | – | – | – | – | – |

Source: publication PMC10835127, “Viruses traverse the human proteome through peptide interfaces that can be biomimetically leveraged for drug discovery” (Proceedings of the National Academy of Sciences of the …, 2024)
